The values that follow come from patent US5216124A, “Substituted cyclic tetrapeptides” (G. D. Searle & Co., priority 1991, dated 1993).

One experiment concerns the target δ opioid receptors (Rattus norvegicus, UniProt P33533). As to the kind of experiment: Opiate Binding Assay, displacement of 3[H]-DSLET. Particulars: ratio of mean IC50 μ to δ, above 1.0 = more specific for δ.
In the next experiment the test system is CD Charles River mice. In words: Writhing Assay (PBQ-induced writhing). Format: in vivo, mouse. As to conditions: for number of mice out of ten in which peptide was active, Intragastric: 10 mg/kg i.g., PBQ i.p. 15 min after dosing; for number of mice out of ten in which peptide was active, Subcutaneous: 10 mg/kg s.c., PBQ i.p. 25 min after dosing. The text has this:
The "Writhing Assay" is one of the most widely-used experimental procedures for measuring the analgesic activity of different narcotic and nonnarcotic analgesic agents, and involves the continuous, chemically-induced pain of visceral origin to an animal, such as a mouse or rat. [Gyires et al., Arch. int. Pharmacodyn, 267, 131-140 (1984); C. Vander Wende et al., Fed. Proc., 15, 494 (1956); Koster et al., Fed. Proc., 18, 412 (1959); and Witken et al., J. Pharmacol. Exp. Ther., 133, 400-408 (1961). ] Chemicals which may be used to induce this pain include phenylbenzoquinone (PBQ) and acetic acid. As a result of the chemical irritation to the animal, a characteristic stretching and writhing of the animal (dorsiflexion of the animal's back, extension of its hindlimbs an the strong contraction of its abdominal musculature) will generally occur. […] Drugs which reduce the number of writhes of the animal appear to restore the normal nociceptive threshold of the animal.
This assay was conducted generally in the manner described by R. I. Taber, "Predictive Value of Analgesic Assays in Mice and Rats,"Advances in Biochemical Psychopharmacology, 8, 191 (1974). The Methyl Ester Tetrapeptide and Test Tetrapeptides Nos. 1, 3, 4, 5, 6, 7, 8 and 9 were tested in this assay.
Two hundred CD Charles River mice, weighing 20 to 30 grams were used in this assay.
Twenty-five minutes after subcutaneous administration, and fifteen minutes after intragastric administration, to the mice of 10 mg per kilogram of body weight of either a Test Tetrapeptide or the Methyl Ester Tetrapeptide, […] of body weight of a 0.025% w/v solution of PBQ was injected intraperitoneally into each mouse. Some mice were given saline in place of a Test Tetrapeptide or the Methyl Ester Tetrapeptide, and were used as a control group.
Five minutes later, each mouse was individually placed into a glass beaker for observation, and the number of writhes occurring during the following ten-minute period was counted.
A tetrapeptide compound was considered to be "active" (to have produced analgesia in a mouse) if, in accordance with the conditions set forth above, and under the test criteria employed for this assay, after the administration of 10 mg per kilogram of body weight of the tetrapeptide to the mouse, the number of writhes elicited by a mouse injected with PBQ was equal to, or less than, one-half the median number of writhes recorded for the saline-treated control group of mice that day, as described by R. I. Taber, supra.
The standard initial screening dose of a compound employed in this assay was 10 mg per kilogram (mpk) of body weight for both routes of administration. If this initial screening dose of the tetrapeptide produced analgesia in seven of ten mice, then the effect of additional doses of the tetrapeptide on the writhing response was evaluated, and then the ED50 value (that dose of a Test Tetrapeptide or the Methyl Ester Tetrapeptide which produced analgesia in 50% of the mice to which the tetrapeptide was administered) was generally calculated. A maximum likelihood function was used to determine the ED50 value. (The slopes of the dose-response curves for all tetrapeptides analyzed were compared as described by Tallarida and Murray, Manual of Pharmacologic Calculations, Page 11 (Springer Verlag, N.Y., 1981)).

Where a name gives a salt, the structure may show the parent alone. Positions of bridges follow the written chain, without caps; N, C: chain ends. Non-standard residues stand in square brackets, D forms with d. Residues, ends and D or L forms follow the SMILES beside them. Phe(4-F) = N[C@@H](Cc1ccc(F)cc1)C(=O)O; Dmt = Cc1cc(O)cc(C)c1C[C@H](N)C(=O)O; NMeCha = CN[C@@H](CC1CCCCC1)C(=O)O; NMeF = CN[C@@H](Cc1ccccc1)C(=O)O; 2Thi = N[C@@H](Cc1cccs1)C(=O)O; Cha = N[C@@H](CC1CCCCC1)C(=O)O; dPen = CC(C)(S)[C@@H](N)C(=O)O

Sequence of δ opioid receptors (P33533 whole entry): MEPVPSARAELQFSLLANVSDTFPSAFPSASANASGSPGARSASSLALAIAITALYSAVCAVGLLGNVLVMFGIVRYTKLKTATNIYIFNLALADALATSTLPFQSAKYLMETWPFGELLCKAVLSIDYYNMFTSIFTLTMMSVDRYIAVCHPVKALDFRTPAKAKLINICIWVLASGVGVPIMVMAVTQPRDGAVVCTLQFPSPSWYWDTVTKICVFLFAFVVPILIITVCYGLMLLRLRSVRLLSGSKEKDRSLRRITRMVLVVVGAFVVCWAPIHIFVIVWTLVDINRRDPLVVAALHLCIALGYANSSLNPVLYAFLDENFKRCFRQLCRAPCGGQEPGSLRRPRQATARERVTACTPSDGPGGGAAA

Consider `Cc1cc(O)ccc1CC(N)C(=O)N[C@@H]1CSSC(C)(C)[C@H](C(=O)O)NC(=O)[C@H](Cc2ccccc2)NC1=O` (single isomer, unassigned) [Example 5 (Diastereomer A)], for which, at δ opioid receptors, the “Mean IC50 Value μ/δ Ratio” value is recorded as 48.

For `Cc1cc(O)ccc1CC(N)C(=O)N[C@@H]1CSSC(C)(C)[C@H](C(=O)O)NC(=O)[C@H](Cc2ccccc2)NC1=O` (single isomer, unassigned) [Example 5 (Diastereomer B)], on δ opioid receptors, the “Mean IC50 Value μ/δ Ratio” value turned out to be 15.

On to `COC(=O)[C@@H]1NC(=O)[C@H](Cc2ccccc2)NC(=O)C(NC(=O)[C@@H](N)Cc2c(C)cc(O)cc2C)CCSSC1(C)C` (single isomer, unassigned) [Example 72, 2,6-dimethyl-L-tyrosylhomocysteinyl-L-phenylalanyl-3-mercapto-D-valine, cyclic (2→4)-disulfide, methyl ester, monohydrochloride], for which, in the experiment with CD Charles River mice (listed as Test Tetrapeptide No. 4, monohydrochloride, 10 mg/kg), the “number of mice out of ten in which peptide was active, Intragastric” value (“number of mice out of ten … Intragastric” for short) is listed as 1/10. Also, in the experiment on CD Charles River mice, the “number of mice out of ten in which peptide was active, Subcutaneous” value (shortened to “number of mice out of ten … Subcutaneous”) is given as 6/10. At δ opioid receptors (monohydrochloride), the “Mean IC50 Value μ/δ Ratio” value was 0.4.

Regarding `COC(=O)[C@@H]1NC(=O)[C@H](Cc2ccccc2)NC(=O)C(NC(=O)[C@@H](N)Cc2c(C)cc(O)cc2C)CCSSC1(C)C` (single isomer, unassigned) [Example 73, 2,6-dimethyl-L-tyrosylhomocysteinyl-L-phenylalanyl-3-mercapto-D-valine, cyclic (2→4)-disulfide, methyl ester, monohydrochloride], in the experiment on CD Charles River mice (listed as Test Tetrapeptide No. 5, monohydrochloride, 10 mg/kg), the “number of mice out of ten … Intragastric” value is 5/10. The “number of mice out of ten … Subcutaneous” value in the experiment on CD Charles River mice was 6/10. The “Mean IC50 Value μ/δ Ratio” value at δ opioid receptors (monohydrochloride) turned out to be 0.10.

`Cc1ccc(CC(N)C(=O)N[C@@H]2CSSC(C)(C)[C@H](C(=O)O)NC(=O)[C@H](Cc3ccccc3)NC2=O)c(C)c1O` (single isomer, unassigned) [Example 81 (Diastereomer A), 3-hydroxy-2,4-dimethylphenylalanyl-D-cysteinyl-L-phenylalanyl-3-mercapto-D-valine, cyclic (2→4)-disulfide, monohydrochloride]: at δ opioid receptors (monohydrochloride), the “Mean IC50 Value μ/δ Ratio” value was determined as 0.1.

On to `Cc1ccc(CC(N)C(=O)N[C@@H]2CSSC(C)(C)[C@H](C(=O)O)NC(=O)[C@H](Cc3ccccc3)NC2=O)c(C)c1O` (single isomer, unassigned) [Example 81 (Diastereomer B), 3-hydroxy-2,4-dimethylphenylalanyl-D-cysteinyl-L-phenylalanyl-3-mercapto-D-valine, cyclic (2→4)-disulfide, monohydrochloride], for which the “Mean IC50 Value μ/δ Ratio” value at δ opioid receptors (monohydrochloride) was 19.

On to `Cc1cc(O)c(C)c(C)c1CC(N)C(=O)N[C@@H]1CSSC(C)(C)[C@H](C(=O)O)NC(=O)[C@H](Cc2ccccc2)NC1=O` (single isomer, unassigned) [Example 82 (Diastereomer B), 2,3,6-trimethyltyrosyl-D-cysteinyl-L-phenylalanyl-3-mercapto-D-valine, cyclic (2→4)-disulfide, monohydrochloride], for which the “Mean IC50 Value μ/δ Ratio” value at δ opioid receptors stood at 81.

For `COC(=O)[C@@H]1NC(=O)[C@H](Cc2ccccc2)N(C)C(=O)[C@H](NC(=O)[C@@H](N)Cc2c(C)cc(O)cc2C)CSSC1(C)C` [Example 39, 2,6-dimethyl-L-tyrosyl-D-cysteinyl-N-methyl-L-phenylalanyl-3-mercapto-D-valine, cyclic (2→4)-disulfide, methyl ester, monohydrochloride] (H-[Dmt][dC][NMeF][dPen]-OMe; disulfide 2-4), in the experiment on CD Charles River mice, the “number of mice out of ten … Intragastric” value is reported as 5/10 and the “number of mice out of ten … Subcutaneous” value is on record as 4/10. Also, the “Mean IC50 Value μ/δ Ratio” value at δ opioid receptors is 6.0.

As to `COC(=O)[C@@H]1NC(=O)[C@H](CC2CCCCC2)NC(=O)[C@H](NC(=O)[C@@H](N)Cc2c(C)cc(O)cc2C)CSSC1(C)C` [Example 46, 2,6-dimethyl-L-tyrosyl-D-cysteinyl-3-cyclohexyl-L-alanyl-3-mercapto-D-valine, cyclic (2→4)-disulfide, methyl ester, monohydrochloride] (H-[Dmt][dC][Cha][dPen]-OMe; disulfide 2-4), in the experiment on CD Charles River mice, the “number of mice out of ten … Intragastric” value is given as 4/10 and the “number of mice out of ten … Subcutaneous” value was 5/10. Further, the “Mean IC50 Value μ/δ Ratio” value at δ opioid receptors amounted to 0.6.

Regarding `COC(=O)[C@@H]1NC(=O)[C@H](CC2CCCCC2)N(C)C(=O)[C@H](NC(=O)[C@@H](N)Cc2c(C)cc(O)cc2C)CSSC1(C)C` [Example 53, 2,6-dimethyl-L-tyrosyl-D-cysteinyl-3-cyclohexyl-N-methyl-L-alanyl-3-mercapto-D-valine, cyclic (2→4)-disulfide, methyl ester, monohydrochloride] (H-[Dmt][dC][NMeCha][dPen]-OMe; disulfide 2-4), in the experiment with CD Charles River mice, the “number of mice out of ten … Intragastric” value is on record as 3/10 and the “number of mice out of ten … Subcutaneous” value is 3/10. Moreover, on δ opioid receptors, the “Mean IC50 Value μ/δ Ratio” value came to 12.

With `COC(=O)[C@@H]1NC(=O)[C@H](Cc2cccs2)NC(=O)[C@H](NC(=O)[C@@H](N)Cc2c(C)cc(O)cc2C)CSSC1(C)C` [Example 60, 2,6-dimethyl-L-tyrosyl-D-cysteinyl-3-(2-thienyl)-L-alanyl-3-mercapto-D-valine, cyclic (2→4)-disulfide, methyl ester, monohydrochloride] (H-[Dmt][dC][2Thi][dPen]-OMe; disulfide 2-4), the “Mean IC50 Value μ/δ Ratio” value on δ opioid receptors came out at 1.4.

Take `COC(=O)[C@@H]1NC(=O)[C@H](Cc2ccc(F)cc2)NC(=O)[C@H](NC(=O)[C@@H](N)Cc2c(C)cc(O)cc2C)CSSC1(C)C` [Example 67, 2,6-dimethyl-L-tyrosyl-D-cysteinyl-4-fluoro-L-phenylalanyl-3-mercapto-D-valine, cyclic (2→4)-disulfide, methyl ester, monohydrochloride] (H-[Dmt][dC][Phe(4-F)][dPen]-OMe; disulfide 2-4): in the experiment on CD Charles River mice, the “number of mice out of ten … Intragastric” value is listed as 1/10 and the “number of mice out of ten … Subcutaneous” value was 2/10. The “Mean IC50 Value μ/δ Ratio” value at δ opioid receptors was found to be 2.4.
